According to ChEMBL document CHEMBL1155237, “Selective inhibitors of the mutant B-Raf pathway: discovery of a potent and orally bioavailable aminoisoquinoline” (J Med Chem, 2009):

Tests used:
[1] = molecular target: Angiopoietin-1 receptor (Homo sapiens, UniProt Q02763); experiment: Inhibition of Tie2
[2] = molecular target: Vascular endothelial growth factor receptor 2 (Homo sapiens, UniProt P35968); experiment: Inhibition of KDR
[3] = molecular target: Serine/threonine-protein kinase B-raf (Homo sapiens, UniProt P15056, V600E); experiment: Inhibition of recombinant Braf V600E mutant
Serine/threonine-protein kinase B-raf, sequence (P15056 2-766 V600E limits assumed): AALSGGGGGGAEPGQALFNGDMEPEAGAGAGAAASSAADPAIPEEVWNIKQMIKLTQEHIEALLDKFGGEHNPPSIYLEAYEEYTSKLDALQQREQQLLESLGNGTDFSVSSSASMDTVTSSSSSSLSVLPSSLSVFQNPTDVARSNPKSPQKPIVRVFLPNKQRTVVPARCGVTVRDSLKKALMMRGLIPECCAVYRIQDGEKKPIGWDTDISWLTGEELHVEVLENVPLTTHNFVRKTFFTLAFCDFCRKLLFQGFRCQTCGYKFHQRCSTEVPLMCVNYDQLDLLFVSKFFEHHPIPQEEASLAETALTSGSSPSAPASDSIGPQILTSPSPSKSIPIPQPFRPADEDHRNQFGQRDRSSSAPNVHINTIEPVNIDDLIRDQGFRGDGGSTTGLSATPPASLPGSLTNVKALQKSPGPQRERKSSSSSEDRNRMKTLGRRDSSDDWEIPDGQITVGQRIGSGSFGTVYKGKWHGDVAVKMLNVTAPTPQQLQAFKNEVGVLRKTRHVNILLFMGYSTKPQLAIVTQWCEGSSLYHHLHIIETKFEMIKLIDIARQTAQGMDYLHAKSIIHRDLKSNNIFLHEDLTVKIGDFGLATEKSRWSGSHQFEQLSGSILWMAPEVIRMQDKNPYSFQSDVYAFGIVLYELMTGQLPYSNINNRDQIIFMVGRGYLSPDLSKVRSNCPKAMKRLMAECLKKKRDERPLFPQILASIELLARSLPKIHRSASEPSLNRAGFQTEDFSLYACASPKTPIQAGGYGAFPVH

[4] = molecular target: Mitogen-activated protein kinase 14 (Homo sapiens, UniProt Q16539); experiment: Inhibition of p38alpha
Mitogen-activated protein kinase 14, sequence (Q16539 whole entry): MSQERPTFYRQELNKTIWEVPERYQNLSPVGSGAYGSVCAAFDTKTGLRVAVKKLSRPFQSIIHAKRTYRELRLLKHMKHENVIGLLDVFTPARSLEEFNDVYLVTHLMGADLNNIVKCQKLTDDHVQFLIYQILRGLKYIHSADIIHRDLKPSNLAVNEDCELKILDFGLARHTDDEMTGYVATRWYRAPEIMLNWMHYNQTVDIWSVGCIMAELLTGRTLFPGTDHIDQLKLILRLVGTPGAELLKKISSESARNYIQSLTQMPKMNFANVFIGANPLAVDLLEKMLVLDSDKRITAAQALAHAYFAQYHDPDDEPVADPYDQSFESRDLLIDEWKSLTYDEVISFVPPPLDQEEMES

[5] = molecular target: Tyrosine-protein kinase Lck (Homo sapiens, UniProt P06239); experiment: Inhibition of LCK
Tyrosine-protein kinase Lck, sequence (P06239 whole entry): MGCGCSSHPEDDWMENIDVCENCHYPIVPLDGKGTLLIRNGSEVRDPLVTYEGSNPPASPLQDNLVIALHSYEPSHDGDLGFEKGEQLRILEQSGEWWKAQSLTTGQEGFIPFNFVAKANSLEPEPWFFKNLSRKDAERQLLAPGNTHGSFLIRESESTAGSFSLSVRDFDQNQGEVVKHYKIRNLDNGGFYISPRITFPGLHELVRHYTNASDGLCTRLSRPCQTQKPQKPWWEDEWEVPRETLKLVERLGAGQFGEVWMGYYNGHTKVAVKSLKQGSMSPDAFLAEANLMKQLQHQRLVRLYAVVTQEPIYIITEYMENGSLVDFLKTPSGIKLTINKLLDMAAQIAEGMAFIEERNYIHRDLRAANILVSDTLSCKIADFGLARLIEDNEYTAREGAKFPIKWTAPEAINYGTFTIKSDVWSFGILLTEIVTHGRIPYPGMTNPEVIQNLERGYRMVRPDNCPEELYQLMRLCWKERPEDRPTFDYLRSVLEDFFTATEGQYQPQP

[6] = Volume of distribution at steady state in Sprague-Dawley rat at 2 mg/kg, iv and 5 mg/kg, po; format: ADME, organism-based; details: in vivo, read-out: Vdss
[7] = tested on: Mus musculus; experiment: Inhibition of ERK phosphorylation in human A375 SQ2 cells xenografted CD1 mouse at 20 mg/kg, po bid after 6 hrs; format: functional; details: CD1, A375-SQ2, 6 h
[8] = tested on: A-375; experiment: Antitumor activity against human A375 SQ2 cells xenografted in CD1 mouse assessed as inhibition of tumor growth at 20 mg/kg, po bid for 14 days; format: functional; parameters: Activity: scale not given: the % may be the effect or the level left; details: for inhibition in vivo at 20 mg/kg: Mus musculus, A375-SQ2, 336 h
[9] = tested on: A-375; experiment: Antitumor activity against human A375 SQ2 cells xenografted in CD1 mouse assessed as regression of tumor growth at 35 mg/kg, po bid for 14 days; format: functional
[10] = tested on: Mus musculus; experiment: Inhibition of ERK phosphorylation in human A375 SQ2 cells xenografted CD1 mouse at 35 mg/kg, po bid after 6 hrs; format: functional; details: CD1, A375-SQ2, 6 h
[11] = tested on: A-375; experiment: Antitumor activity against human A375 SQ2 cells xenografted in CD1 mouse assessed as inhibition of tumor growth at 10 mg/kg, po bid for 14 days; format: functional; details: A375-SQ2, 336 h
[12] = tested on: Mus musculus; experiment: Inhibition of ERK phosphorylation in human A375 SQ2 cells xenografted CD1 mouse at 10 mg/kg, po bid after 6 hrs; format: functional; details: CD1, A375-SQ2, 6 h
[13] = Elimination half life in Sprague-Dawley rat at 2 mg/kg, iv and 5 mg/kg, po; format: ADME, organism-based; details: in vivo, read-out: beta t1/2 (converted)
[14] = Clearance in Sprague-Dawley rat at 2 mg/kg, iv and 5 mg/kg, po; format: ADME, organism-based; details: in vivo
[15] = Oral bioavailability in Sprague-Dawley rat at 5 mg/kg; format: ADME, organism-based; details: in vivo
[16] = tested on: A-375; experiment: Antitumor activity against human A375 SQ2 cells xenografted in po dosed CD1 mouse assessed as inhibition of tumor growth administered twice daily for 14 days; format: functional; details: 336 h
[17] = tested on: Mus musculus; experiment: Inhibition of ERK phosphorylation in human A375 SQ2 cells xenografted CD1 mouse at 5 mg/kg, po bid after 6 hrs; format: functional; details: CD1, A-375, 6 h
[18] = tested on: A-375; experiment: Antitumor activity against human A375 SQ2 cells xenografted in CD1 mouse assessed as inhibition of tumor growth at 5 mg/kg, po bid for 14 days; format: functional; details: A375-SQ2, 336 h
[19] = AUC (0 to 24 hrs) in human A375 SQ2 cells xenografted po dosed CD1 mouse administered twice daily for 14 days; format: ADME, organism-based; parameters: time < 24 hr, route oral; details: in vivo
[20] = tested on: Mus musculus; experiment: Inhibition of ERK phosphorylation in human A375 SQ2 cells xenografted CD1 mouse at 17.5 mg/kg, po bid after 6 hrs; format: functional; details: CD1, A-375, 6 h
[21] = tested on: A-375; experiment: Antitumor activity against human A375 SQ2 cells xenografted in CD1 mouse assessed as inhibition of tumor growth at 17.5 mg/kg, po bid for 14 days; format: functional; details: A375-SQ2, 336 h
[22] = tested on: Mus musculus; experiment: Inhibition of ERK phosphorylation in human A375 SQ2 cells xenografted CD1 mouse at 100 mg/kg, po bid after 6 hrs; format: functional; details: CD1, A375-SQ2, 6 h
[23] = tested on: A-375; experiment: Antitumor activity against human A375 SQ2 cells xenografted in CD1 mouse assessed as regression of tumor growth at 100 mg/kg, po bid for 14 days; format: functional
[24] = tested on: A-375; experiment: Antitumor activity against human A375 SQ2 cells xenografted in CD1 mouse assessed as inhibition of tumor growth at 30 mg/kg, po bid for 14 days; format: functional; details: A-375, 336 h
[25] = tested on: A-375; experiment: Antitumor activity against human A375 SQ2 cells xenografted in CD1 mouse assessed as inhibition of tumor growth at 60 mg/kg, po bid for 14 days; format: functional; details: A375-SQ2, 336 h
[26] = tested on: Mus musculus; experiment: Inhibition of ERK phosphorylation in human A375 SQ2 cells xenografted CD1 mouse at 30 mg/kg, po bid after 6 hrs; format: functional; details: CD1, A375-SQ2, 6 h
[27] = tested on: Mus musculus; experiment: Inhibition of ERK phosphorylation in human A375 SQ2 cells xenografted CD1 mouse at 60 mg/kg, po bid after 6 hrs; format: functional; details: CD1, A375-SQ2, 6 h

Angiopoietin-1 receptor, sequence (Q02763 whole entry): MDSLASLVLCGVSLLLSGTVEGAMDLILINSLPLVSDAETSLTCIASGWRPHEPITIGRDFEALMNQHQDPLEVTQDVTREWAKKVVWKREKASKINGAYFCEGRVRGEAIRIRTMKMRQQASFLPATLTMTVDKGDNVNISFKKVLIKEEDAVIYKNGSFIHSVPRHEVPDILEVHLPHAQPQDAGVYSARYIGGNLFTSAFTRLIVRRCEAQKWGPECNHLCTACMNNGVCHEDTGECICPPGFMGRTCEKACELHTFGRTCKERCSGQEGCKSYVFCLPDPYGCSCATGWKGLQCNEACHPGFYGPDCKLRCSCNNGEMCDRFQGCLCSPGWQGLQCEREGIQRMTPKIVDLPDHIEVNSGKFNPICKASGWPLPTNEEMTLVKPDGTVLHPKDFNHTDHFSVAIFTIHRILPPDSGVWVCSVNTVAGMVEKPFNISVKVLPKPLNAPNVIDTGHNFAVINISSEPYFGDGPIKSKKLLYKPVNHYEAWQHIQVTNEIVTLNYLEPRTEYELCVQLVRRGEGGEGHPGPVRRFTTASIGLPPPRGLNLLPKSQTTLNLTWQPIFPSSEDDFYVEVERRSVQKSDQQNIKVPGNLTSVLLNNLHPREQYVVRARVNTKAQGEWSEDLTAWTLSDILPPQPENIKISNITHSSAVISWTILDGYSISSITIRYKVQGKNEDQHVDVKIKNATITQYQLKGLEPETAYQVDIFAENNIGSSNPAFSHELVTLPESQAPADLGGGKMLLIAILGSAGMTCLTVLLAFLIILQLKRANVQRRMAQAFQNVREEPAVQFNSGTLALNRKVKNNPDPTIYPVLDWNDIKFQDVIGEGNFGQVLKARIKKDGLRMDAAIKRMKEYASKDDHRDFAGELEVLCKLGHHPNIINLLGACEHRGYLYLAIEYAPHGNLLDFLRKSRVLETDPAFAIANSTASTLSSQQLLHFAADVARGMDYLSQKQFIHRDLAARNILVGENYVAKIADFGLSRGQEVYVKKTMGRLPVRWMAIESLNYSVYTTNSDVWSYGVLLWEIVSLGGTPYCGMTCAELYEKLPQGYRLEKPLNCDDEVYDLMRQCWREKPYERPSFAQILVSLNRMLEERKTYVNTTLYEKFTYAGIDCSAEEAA
Vascular endothelial growth factor receptor 2, sequence (P35968 whole entry): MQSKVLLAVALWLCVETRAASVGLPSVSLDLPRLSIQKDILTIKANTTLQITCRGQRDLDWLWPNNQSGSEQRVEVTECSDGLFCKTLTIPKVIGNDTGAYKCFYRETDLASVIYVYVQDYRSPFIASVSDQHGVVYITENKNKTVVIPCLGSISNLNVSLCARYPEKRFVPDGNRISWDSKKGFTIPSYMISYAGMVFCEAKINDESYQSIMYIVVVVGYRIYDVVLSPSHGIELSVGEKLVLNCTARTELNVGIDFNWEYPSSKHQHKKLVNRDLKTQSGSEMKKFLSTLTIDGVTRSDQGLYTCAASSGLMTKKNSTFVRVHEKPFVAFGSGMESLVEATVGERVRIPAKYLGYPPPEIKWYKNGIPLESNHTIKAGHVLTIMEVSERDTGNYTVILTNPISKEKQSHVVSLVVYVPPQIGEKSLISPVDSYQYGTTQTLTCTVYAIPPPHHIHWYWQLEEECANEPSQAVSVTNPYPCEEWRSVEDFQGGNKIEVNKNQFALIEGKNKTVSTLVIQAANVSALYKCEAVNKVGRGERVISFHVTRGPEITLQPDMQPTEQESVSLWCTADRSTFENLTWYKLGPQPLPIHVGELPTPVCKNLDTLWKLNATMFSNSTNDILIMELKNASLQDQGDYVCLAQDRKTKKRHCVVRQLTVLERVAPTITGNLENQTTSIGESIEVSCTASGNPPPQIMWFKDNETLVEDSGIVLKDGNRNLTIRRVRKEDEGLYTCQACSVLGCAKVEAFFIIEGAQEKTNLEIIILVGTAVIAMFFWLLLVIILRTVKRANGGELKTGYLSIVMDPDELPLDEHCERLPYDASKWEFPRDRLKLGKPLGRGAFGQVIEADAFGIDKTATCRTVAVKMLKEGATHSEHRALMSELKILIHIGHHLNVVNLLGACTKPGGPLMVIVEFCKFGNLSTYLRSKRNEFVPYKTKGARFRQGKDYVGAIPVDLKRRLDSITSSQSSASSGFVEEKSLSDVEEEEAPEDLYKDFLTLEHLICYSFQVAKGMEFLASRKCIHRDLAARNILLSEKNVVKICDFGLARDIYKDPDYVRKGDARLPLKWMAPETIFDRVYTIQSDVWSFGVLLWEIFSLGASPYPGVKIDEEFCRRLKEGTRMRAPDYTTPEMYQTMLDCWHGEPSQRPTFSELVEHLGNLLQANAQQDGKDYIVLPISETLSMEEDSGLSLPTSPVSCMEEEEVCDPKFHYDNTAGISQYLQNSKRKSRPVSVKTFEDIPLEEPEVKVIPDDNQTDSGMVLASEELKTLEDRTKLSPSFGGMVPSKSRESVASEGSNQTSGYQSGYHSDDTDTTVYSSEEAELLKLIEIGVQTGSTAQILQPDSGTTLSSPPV

| SMILES | IC50 [1] | IC50 [2] | IC50 [3] | IC50 [4] | IC50 [5] | Vd [6] | Activity [9] | inhibition in vivo at 35 mg/kg [10] | half-life [13] | clearance [14] | bioavailability [15] | ED50 [16] | further results |
| --- | --- | --- | --- | --- | --- | --- | --- | --- | --- | --- | --- | --- | --- |
| CNc1ncc2cc(-c3c(C)ccc4c(Nc5ccc(Cl)cc5)nccc34)ccc2n1 | > 1000 nM | > 25000 nM | 5.4 nM | > 1600 nM | 110 nM | – | – | – | – | – | – | – | – |
| CNc1ncc2cc(-c3c(C)ccc4c(Nc5ccc6c(c5)NC(=O)C6(C)C)nccc34)ccc2n1 | > 1000 nM | 240 nM | 21 nM | 51 nM | 78 nM | 4.3 L/kg | 75% | 85% | 4.8 h | 10.8 mL/min/kg | 55% | 4.7 mg/kg | inhibition in vivo at 20 mg/kg [7]: 82%; Activity [8]: 55%; inhibition in vivo at 10 mg/kg [11]: 85%; inhibition in vivo at 10 mg/kg [12]: 60% |
| C#Cc1cccc(Nc2nccc3c(Nc4ncccc4-c4cc(NC)ncn4)c(C)ccc23)c1 | 8.1 nM | 420 nM | – | 450 nM | 210 nM | 2.2 L/kg | 54% | 81% | 2.8 h | 12.2 mL/min/kg | 76% | 13 mg/kg | inhibition in vivo at 5 mg/kg [17]: 5%; inhibition in vivo at 20 mg/kg [7]: 40%; inhibition in vivo at 20 mg/kg [8]: 78%; inhibition in vivo at 5 mg/kg [18]: 18%; AUC at 24 h [19]: 9410 ng·h/mL |
| Cc1ccc2c(Nc3ccc(Cl)cc3)nccc2c1Nc1ncccc1-c1ccncn1 | 520 nM | > 25000 nM | 3.4 nM | > 1600 nM | 280 nM | 2.2 L/kg | – | – | 3.5 h | 11.2 mL/min/kg | 83% | – | – |
| CNc1cc(-c2cccnc2Nc2c(C)ccc3c(Nc4ccc5sc(C)nc5c4)nccc23)ncn1 | 5.8 nM | 170 nM | – | 350 nM | 23 nM | 0.72 L/kg | 24% | 66% | 2.9 h | 5.5 mL/min/kg | 100% | 11 mg/kg | inhibition in vivo at 20 mg/kg [7]: 52%; inhibition in vivo at 20 mg/kg [8]: 85%; AUC at 24 h [19]: 12300 ng·h/mL; inhibition in vivo at 10 mg/kg [11]: 42%; inhibition in vivo at 10 mg/kg [12]: 30% |
| Cc1ccc2c(Nc3cccc(C(F)(F)F)c3)nccc2c1Nc1ncccc1-c1ccncn1 | 47 nM | 760 nM | 17 nM | > 1600 nM | 81 nM | 3.7 L/kg | – | – | 4.5 h | 20 mL/min/kg | 22% | – | – |
| Cc1ccc(C(=O)Nc2cccc(C(F)(F)F)c2)cc1Nc1ncccc1-c1ccncn1 | – | 4.2 nM | 0.46 nM | 12 nM | – | 1.9 L/kg | – | – | 1.3 h | 35 mL/min/kg | 16% | – | – |
| CNc1cc(-c2cccnc2Nc2c(C)ccc3c(Nc4ccc(Cl)cc4)nccc23)ncn1 | 24 nM | 300 nM | 56 nM | > 1600 nM | 12 nM | 1.7 L/kg | – | – | 4.7 h | 4.83 mL/min/kg | 100% | – | – |
| CNc1cc(-c2cccnc2Nc2c(C)ccc3c(Nc4ccc(C#N)cc4)nccc23)ncn1 | 400 nM | > 1000 nM | 39 nM | > 1600 nM | 150 nM | 0.37 L/kg | 17% | 78% | 2.7 h | 1.83 mL/min/kg | 100% | 11.5 mg/kg | AUC at 24 h [19]: 52800 ng·h/mL; inhibition in vivo at 10 mg/kg [11]: 50%; inhibition in vivo at 17.5 mg/kg [20]: 63%; inhibition in vivo at 10 mg/kg [12]: 21%; inhibition in vivo at 17.5 mg/kg [21]: 80% |
| CNc1ncc2cc(-c3c(C)ccc4c(Nc5cc(C(C)(C)C)nn5C)nccc34)ccc2n1 | 200 nM | 230 nM | – | 110 nM | 21 nM | 5.5 L/kg | – | – | 3.9 h | 30 mL/min/kg | 24% | 27 mg/kg | inhibition in vivo at 100 mg/kg [22]: 78%; Activity [23]: 45%; inhibition in vivo at 30 mg/kg [24]: 60%; inhibition in vivo at 60 mg/kg [25]: 90%; inhibition in vivo at 30 mg/kg [26]: 50%; inhibition in vivo at 60 mg/kg [27]: 67% |
| CNc1ncc2cc(-c3cc(C(=O)Nc4cccc(C(F)(F)F)c4)ccc3C)ccc2n1 | 1.8 nM | – | 1.7 nM | 3.5 nM | 0.27 nM | 3.6 L/kg | – | – | 2.3 h | 26.7 mL/min/kg | – | – | – |
